Molecules are shown by their SMILES. The source made the active and inactive calls.

Assay [1] concerns the target T1, Long-chain-fatty-acid--AMP ligase FadD28 (Mycobacterium tuberculosis, UniProt P9WQ59).
T1 sequence (P9WQ59 whole entry): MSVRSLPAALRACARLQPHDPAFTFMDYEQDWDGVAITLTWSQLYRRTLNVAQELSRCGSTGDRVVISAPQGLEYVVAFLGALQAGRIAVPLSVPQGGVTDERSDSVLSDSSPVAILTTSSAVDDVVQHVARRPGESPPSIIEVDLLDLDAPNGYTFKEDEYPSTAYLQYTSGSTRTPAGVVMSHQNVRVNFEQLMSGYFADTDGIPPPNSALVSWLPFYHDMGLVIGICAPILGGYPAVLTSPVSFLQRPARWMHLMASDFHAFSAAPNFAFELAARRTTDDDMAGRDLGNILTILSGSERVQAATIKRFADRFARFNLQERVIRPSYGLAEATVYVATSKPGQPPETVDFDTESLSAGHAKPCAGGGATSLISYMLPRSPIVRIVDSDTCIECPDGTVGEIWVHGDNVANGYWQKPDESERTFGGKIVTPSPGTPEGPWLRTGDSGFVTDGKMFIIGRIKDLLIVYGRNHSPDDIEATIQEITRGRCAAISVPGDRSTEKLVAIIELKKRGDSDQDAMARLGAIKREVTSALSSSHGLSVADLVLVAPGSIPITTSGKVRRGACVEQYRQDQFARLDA
The assay is described as follows: Fluorescence polarization aasay to screen for inhibitors that compete for the binding of FadD28 to a bisubstrate Measured in Biochemical System Using Plate Reader - 2147-01_Inhibitor_Dose_CherryPick_Activity. The format is functional, Mycobacterium tuberculosis H37Rv. A general note: In fluorescence polarisation assays a small probe gives low polarisation when free and higher when bound to something large.

In assay [2] the target is T2, DNA repair protein RAD52 homolog (Homo sapiens, UniProt P43351).
T2 sequence (P43351 whole entry): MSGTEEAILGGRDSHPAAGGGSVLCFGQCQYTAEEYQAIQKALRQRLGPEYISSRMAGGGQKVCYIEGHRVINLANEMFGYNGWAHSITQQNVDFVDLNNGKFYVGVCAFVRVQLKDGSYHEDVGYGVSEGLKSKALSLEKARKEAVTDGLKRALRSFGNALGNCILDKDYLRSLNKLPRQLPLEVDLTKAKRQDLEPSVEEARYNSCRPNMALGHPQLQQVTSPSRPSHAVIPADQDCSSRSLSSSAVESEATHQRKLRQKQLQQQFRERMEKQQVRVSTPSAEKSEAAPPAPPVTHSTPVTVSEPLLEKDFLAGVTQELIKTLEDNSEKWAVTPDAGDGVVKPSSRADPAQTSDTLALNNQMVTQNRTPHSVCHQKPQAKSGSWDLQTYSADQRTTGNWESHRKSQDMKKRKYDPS
It is filed as functional, biochemical.

Assay [3] concerns the target T3, Adenosylmethionine-8-amino-7-oxononanoate aminotransferase (Mycobacterium tuberculosis, UniProt P9WQ81).
T3 sequence (P9WQ81 whole entry): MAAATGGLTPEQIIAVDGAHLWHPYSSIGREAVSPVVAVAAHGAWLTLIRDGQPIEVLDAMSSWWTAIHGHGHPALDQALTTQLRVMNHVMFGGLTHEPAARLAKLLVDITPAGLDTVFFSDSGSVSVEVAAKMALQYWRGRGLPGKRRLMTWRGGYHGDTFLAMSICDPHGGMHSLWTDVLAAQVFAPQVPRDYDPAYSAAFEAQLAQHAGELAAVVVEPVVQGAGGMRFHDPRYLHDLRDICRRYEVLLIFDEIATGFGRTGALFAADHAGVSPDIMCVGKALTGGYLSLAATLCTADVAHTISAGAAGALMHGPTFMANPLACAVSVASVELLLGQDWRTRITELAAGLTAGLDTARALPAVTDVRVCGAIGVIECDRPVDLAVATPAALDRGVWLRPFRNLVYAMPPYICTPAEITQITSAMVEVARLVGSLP
Nature of the assay: Mycobacterium tuberculosis BioA enzyme inhibitor Measured in Biochemical System Using Plate Reader - 2163-02_Inhibitor_Dose_CherryPick_Activity. It is filed as functional, Mycobacterium tuberculosis UT205.

Assay [4] can be described thus: MC4R antagonists, dose response, counter-screen for LGR2 antagonist project, cell-based, plate reader, cherry pick (AID 743444).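 Note: transfected HEK 293 cells stimulated with alpha-MSH peptide; potency of inhibitors of the alpha-MSH evoked signal.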 The format is functional. (A counterscreen serves to expose hits that act by an unwanted route or on another target.)
A short description of assay [5]: LGR2 antagonists, dose response, cell-based, HEK293, CRE-luciferase reporter, cherry pick, set 2 (AID 743343).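 Note: transfected cells were stimulated with diluted bursicon conditioned medium after compound addition.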 It is filed as functional. (In general: In a reporter assay the amount or activity of a reporter protein is the signal.)
Assay [6] is described as follows: A549 cell cytotoxicity, dose response, cytotoxicity control, plate reader, cherry-pick, antagonist series (AID 743412). The format is functional, cell-based.
Assay [7] is described as follows: inhibitors of SNCA 5'UTR-driven reporter translation, confirmation, H4 neuroglioma cells, luminescence (AID 1988). It is filed as functional, cell-based.
Assay [8] in a line: Luminescence Cell-Based Dose Response HTS to Identify Inhibitors of 5'UTR Stem-Loop Driven Prion Protein mRNA Translation in H4 Neuroglioblastoma Cells. [Related pubchem assays: 1827 (Project Summary), 1813 (Primary HTS)]. It is filed as functional.
A short description of assay [9]: A cytotoxicity screen of small molecule inhibitors of the PhoP region in Salmonella typhi identified in the primary screen. [Related pubchem assays: 1850, 1864, 1985 ]. The format is functional.
In assay [10] the target is T4, Hepatocyte nuclear factor 4-alpha (Homo sapiens, UniProt P41235).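 Note: biochemical luminescence-based dose-response counterscreen measuring inhibition of HNF4 dimerization, run alongside a screen for blockers of ABHD5–perilipin-5 interaction; split luciferase complementation of HNF4 fusion proteins in cell lysate measuring dimerization.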
T4 sequence (P41235 whole entry): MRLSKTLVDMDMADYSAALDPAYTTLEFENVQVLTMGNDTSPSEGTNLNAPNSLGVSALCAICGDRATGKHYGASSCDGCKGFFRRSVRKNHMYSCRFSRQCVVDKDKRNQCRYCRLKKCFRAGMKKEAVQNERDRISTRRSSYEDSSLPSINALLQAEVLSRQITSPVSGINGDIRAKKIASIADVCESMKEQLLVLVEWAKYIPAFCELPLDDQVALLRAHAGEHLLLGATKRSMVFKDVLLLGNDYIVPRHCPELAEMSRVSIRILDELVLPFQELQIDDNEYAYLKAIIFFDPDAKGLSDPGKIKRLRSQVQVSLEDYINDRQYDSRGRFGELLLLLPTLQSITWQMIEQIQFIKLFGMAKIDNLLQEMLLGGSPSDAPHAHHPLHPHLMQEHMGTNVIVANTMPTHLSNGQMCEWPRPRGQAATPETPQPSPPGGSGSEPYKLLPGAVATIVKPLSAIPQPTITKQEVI
The format is functional, cell-based.

A short description of assay [11]: inhibitors of intracellular T. cruzi replication, confirmation, NIH3T3 host cells, beta-gal luminescence (AID 2044).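 Note: intracellular parasites grown in NIH/3T3 mouse fibroblasts as host cells; luminescent beta-galactosidase reporter signal from transgenic T. cruzi replicating inside host cells; inhibitors lower the luminescence signal.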 It is filed as functional, cell-based.
A short description of assay [12]: growth suppression of PTEN-null colon cells, dose response, cell-based, HCT116 PTEN knockout (AID 1047).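 Note: HCT116 colon tumor cells with PTEN knocked out; cells exposed to compound for 60 hours before readout; potency for loss of cell viability measured by luminescence.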 It is filed as functional.
Assay [13] in a line: cytotoxicity toward NIH3T3 fibroblasts, dose response, counter-screen, cell-based, ATP luminescence, mouse fibroblasts (AID 2010).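 Note: cells exposed to compound for about 90 hours before reading.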 It is filed as functional.
The nature of assay [14]: growth suppression of beta-catenin-knockout colon cells, dose response, cell-based, HCT116, human colon tumor (AID 1045).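 Note: HCT116 colon tumor cells with beta catenin knocked out; cells exposed to compound for 60 hours.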 The format is functional.

Turning to `CN(C)c1ccc(/C=C2/C(=O)N(CCc3ccc(F)cc3)C(=O)N=C2O)cc1`, the AC50 (commonly the concentration giving half of the maximal activity seen) in [1] was 23.4 µM (active). On to `CN(C)CCNC(=O)c1cccc2nc3c(ccc4ccccc43)nc12`, for which the AC50 in assay [2] was 0.501 µM (active). On to `CCc1c(C)nc2ncnn2c1Nc1ccc(C#N)c(Cl)c1`, for which, in [3], the AC50 was 10.5 µM (active). Take `O=C(Nc1ccccc1)N1CCN(Cc2ccc3c(c2)OCO3)CC1`: the AC50 in assay [3] is 2.63 µM (active). On the same count and under the same terms, under `Cc1cccc(-c2ccc3c(c2)C2CC3CCN2)c1` (configuration not stated) stands 4.64 µM (active). `Cc1cnc(NC(=O)COc2ccccc2Cl)s1`: the half-maximal activity concentration (AC50) is 2.3 µM (active) in assay [4], 2.33 µM (active) in [5] and > 52 µM (inactive) in [6]. Moreover, the EC50 (as a rule, the concentration that produces a half-maximal response) in [7] is 1.25 µM (active); in assay [8] it was 491 nM (active). On to `CCN(CC)CCCN(C(=O)c1ccc(OC)cc1)c1nc(-c2ccc(OC)cc2)cs1`, for which the half-maximal activity concentration (AC50) in assay [2] was 18.1 µM (active). Turning to `Cc1c(C)n(C)c2ccc(C(=O)NCc3cccs3)cc12`, in assay [9], the 50% effective concentration (EC50) is > 50 µM (active). The half-maximal activity concentration (AC50) in [1] is 56.8 µM (active). Consider `Oc1c(C(c2ccccc2)N2CCCCC2)ccc2ccccc12` (configuration not stated), for which the half-maximal inhibitory concentration (IC50) (as a rule, the concentration that inhibits the measured activity by half) in [10] is 0.828 µM (active). With `O=C(NCc1ccccc1)C(c1cccc2ccccc12)n1c(=O)c(-c2ccco2)nc2ccccc21` (configuration not stated), the concentration for half-maximal inhibition (IC50) in assay [10] is 2.77 µM (active). `CC(C)(C)NC(=O)C(c1ccnc2ccccc12)n1c(=O)c(-c2ccco2)nc2ccccc21` (configuration not stated): in assay [10], the IC50 was 3.18 µM (active). As to `CN(C)CCCn1c(SCC(=O)N2c3ccccc3Sc3ccccc32)nc2ccccc2c1=O`, the AC50 in assay [2] was 17.1 µM (active). Further, the concentration giving a half-maximal response (EC50) in assay [11] is 268 nM (active); in [12], 5.64 µM (active); in [13] it was > 60 µM (not active); in [14] it was 4.73 µM (active). On to `COc1ccccc1NC(=O)Cn1cnc2c(oc3nc4c(cc32)CCCC4)c1=O`, for which, in assay [1], the AC50 was 77.8 µM (active).

Values taken from ChEMBL document CHEMBL1201862, “PubChem BioAssay data set” (2004).
